Assay results reported in PubChem BioAssay AID1996.
≈ marks a conversion by molar mass, not a printed value.

conditions: buffer; pH 7.4; 200.0 µM

Row | SMILES | solubility kinetic
1 | Cc1onc(-c2ccc(Cl)cc2Cl)c1C(=O)/C=C/N(C)C | > 48.8 µg/mL
2 | CC(C)c1ccc(N=Cc2c(O)n(C3CC3)c(=S)[nH]c2=O)cc1 | 0.5 µg/mL (≈ 1.52 µM)
3 | COc1ccc(CC(=O)Nc2cc(C)ccc2O)cc1OC | > 45.2 µg/mL
4 | O=C(O)c1c(C(=O)O)c(-c2ccc(F)cc2)n2c1CCC2 | > 43.4 µg/mL
5 | O=C(Nc1ccc2c(c1)OCO2)C1CC(=O)N(c2ccccc2)C1 (stereo unspecified) | 3.3 µg/mL (≈ 10.2 µM)
6 | NC(=O)c1ccc(NC(=O)COC(=O)c2cc3c(s2)CCC3)cc1 | 8.6 µg/mL (≈ 25 µM)
7 | CCCn1c(=O)c2c(nc3n2CCCN3Cc2ccccc2)n(C)c1=O | 17.6 µg/mL (≈ 49.8 µM)
8 | Cc1ccc(Nc2nc(-c3cccnc3)cs2)cc1Cl | 0.3 µg/mL (≈ 0.994 µM)
9 | CC(=O)c1cn(C2OC(CO)C3OC(C)(C)OC32)c(=O)n(C)c1=O (stereo unspecified) | 48.9 µg/mL (≈ 144 µM)
10 | COc1ccc(N2C(=O)CSC2c2ccccc2[N+](=O)[O-])cc1 (stereo unspecified) | 47.7 µg/mL (≈ 144 µM)
11 | C=CC[C@H]1CC(C)=C[C@H](CC=C)[NH2+]1.[Cl-] | > 32.1 µg/mL
12 | O=C(c1ccccc1)C1CCN(C(=O)c2c(F)cccc2F)CC1 | > 49.4 µg/mL
13 | CC1CCCCC1NC(=O)CNC(=O)c1ccco1 (stereo unspecified) | 37.2 µg/mL (≈ 141 µM)
14 | CN1C(=O)c2ccc(C(=O)Nc3ccccc3O)cc2C1=O | 13.1 µg/mL (≈ 44.2 µM)
15 | O=C1NNC(=O)C1c1ccccc1 | > 26.4 µg/mL
16 | C=CCn1c(O)c(C(C)=NCCc2c[nH]c3ccccc23)c(=O)[nH]c1=O | 33.5 µg/mL (≈ 95.1 µM)
17 | C=Cc1ccc(Cn2c(C(=O)O)c(C=O)c3ccccc32)cc1 | > 45.8 µg/mL
18 | Cl.Nc1ccc(Oc2cc(N)cc(Oc3ccccc3)c2)cc1 | 30.1 µg/mL
19 | O=C(NCCO)c1cc([N+](=O)[O-])cc2c1C=Cc1ccccc1O2 | 35.3 µg/mL (≈ 108 µM)
20 | COc1ccc(C(=O)NCCc2nc3cc([N+](=O)[O-])ccc3n2C)cc1 | 2.5 µg/mL (≈ 7.05 µM)
21 | O=C(COc1ccc(Oc2ccccc2)cc1)NC1CCS(=O)(=O)C1 (stereo unspecified) | > 54.2 µg/mL
22 | CC(C)C(=O)Nc1ccccc1Cc1ccccc1 | 10.7 µg/mL (≈ 42.2 µM)
23 | Cc1c(C(=O)N2CCC2)oc2ccc(Br)cc12 | 19.5 µg/mL (≈ 66.3 µM)
24 | O=C(CCNS(=O)(=O)c1ccccc1)N1CCCC1 | > 42.4 µg/mL
25 | Cc1ccc(NC(=O)CN2C(=O)NC(C)(CC(C)C)C2=O)c(Br)c1 (stereo unspecified) | 55.5 µg/mL (≈ 140 µM)

Row | SMILES | solubility kinetic
26 | Cc1ccc(NC(=O)COC(=O)c2ccc3c(c2)OCO3)c(C)c1 | < 0.7 µg/mL
27 | N#CC1(NC(=O)COc2ccc(C(N)=O)cc2)CCCC1 | > 43.1 µg/mL
28 | COC(=O)Nc1ccc2c(c1)Nc1ccccc1CC2 | 0.5 µg/mL (≈ 1.86 µM)
29 | O=C(/C=C/c1cccc([N+](=O)[O-])c1)OCC1CCCO1 (stereo unspecified) | 34.4 µg/mL (≈ 124 µM)
30 | COc1ccc(CCNC(=O)C2Cc3ccccc3C(=O)O2)cc1 (stereo unspecified) | > 48.8 µg/mL
31 | COC(=O)c1sc(-c2ccc(Cl)cc2)cc1NC(=O)COCC(=O)O | 28.1 µg/mL (≈ 73.2 µM)
32 | COc1ccccc1NC(=O)C1CCOC1=O (stereo unspecified) | > 35.3 µg/mL
33 | CSc1ccccc1NC(=O)Cc1ccccc1[N+](=O)[O-] | 5.7 µg/mL (≈ 18.9 µM)
34 | CCn1c(CCl)nc2cc(S(=O)(=O)N3CCOCC3)ccc21 | 12.9 µg/mL (≈ 37.5 µM)
35 | Nc1nc(Nc2ccc(Cl)cc2)c(NC=O)c(=O)[nH]1 | > 42 µg/mL
36 | CCn1c(C(=O)NC2CCC(C)CC2)cc2sccc21 (stereo unspecified) | 0.7 µg/mL (≈ 2.41 µM)
37 | COc1ccccc1CNC(=O)COC(=O)C1CC1 | > 39.5 µg/mL
38 | Cc1ccccc1NC(=O)c1cc(-c2ccccc2)n(CCCN2CCOCC2)c1C | 16.3 µg/mL (≈ 39 µM)
39 | O=C(NCC1CCCO1)c1ccc2[nH]c3c(c2c1)CCCC3 (stereo unspecified) | > 44.8 µg/mL
40 | CC(C)CN1C(=O)C(=O)N(CC(=O)c2ccc[nH]2)C1=O | 40.7 µg/mL (≈ 147 µM)
41 | COc1ccccc1OCCn1ccnc1 | > 32.7 µg/mL
42 | NC(=O)c1ccc(N2CCNC(=O)C2)c([N+](=O)[O-])c1 | > 39.6 µg/mL
43 | Cc1ccsc1CN1CC(=O)N(c2c(C)cccc2C)C1=S | 12.2 µg/mL (≈ 36.9 µM)
44 | O=C(CCNC(=O)c1ccc([N+](=O)[O-])cc1)NCc1ccco1 | > 47.6 µg/mL
45 | Cc1cccc(N2CCN(C(=O)c3ccc4ccccc4c3)CC2C)c1 (stereo unspecified) | 7.4 µg/mL (≈ 21.5 µM)
46 | COc1ccc(OCCNC(=O)c2ccccc2Cl)cc1 | > 45.9 µg/mL
47 | Cn1ccc(C(=O)OCC(=O)Nc2ccccc2Cl)n1 | > 44.1 µg/mL
48 | Nc1cc(S(=O)(=O)Nc2ccc(Cl)cc2)ccc1N1CCOCC1 | > 55.2 µg/mL
49 | Cc1c(C=O)c2ccccc2n1Cc1ccccc1F | 20.4 µg/mL (≈ 76.3 µM)
50 | CC(=O)Oc1ccccc1C(=O)NC(C)CCc1ccccc1 (stereo unspecified) | > 46.7 µg/mL

Row | SMILES | solubility kinetic
51 | CC1(C(=O)N2CCN(C(=O)c3ccco3)CC2)CC1(Br)Br (stereo unspecified) | > 63 µg/mL
52 | N#CC1=C(S)N(c2ccccc2)C(c2ccco2)NC1=O (stereo unspecified) | 37 µg/mL (≈ 124 µM)
53 | O=C1NC2(CCCCC2)C(=O)N1c1cccc(Cl)c1 | 11.1 µg/mL (≈ 39.8 µM)
54 | CCN(CC)C(=S)SCC(=O)Nc1ncc2c(n1)CCCC2=O | 15.5 µg/mL (≈ 44 µM)
55 | CCOc1ccccc1Nc1nnc(SCC(=O)NC2CC2)s1 | > 52.6 µg/mL
56 | CC(=O)N/C(=C\c1ccc(C)o1)C(=O)NCc1ccccc1 | > 44.8 µg/mL
57 | CCOC(=O)c1sc(NC(=O)CSC(=S)N2CCN(C)CC2)nc1C | > 60.4 µg/mL
58 | Cc1ccc(C)c(NC(=O)NCCN2CCCCC2)c1 | 35.6 µg/mL (≈ 129 µM)
59 | COc1ccc(CNC(=O)C2CCCN2C)cc1OC (stereo unspecified) | 37 µg/mL (≈ 133 µM)
60 | COc1ccc(NS(=O)(=O)c2cccc(NC(=O)COc3ccccc3[N+](=O)[O-])c2)cc1 | 2.9 µg/mL (≈ 6.34 µM)
61 | CNc1ccccc1NC(=O)CCn1c(=S)oc2ccccc21 | 5.6 µg/mL (≈ 17.1 µM)
62 | O=C(O)C1CC=C(Cl)CC1C(=O)NC1CCCCC1 (stereo unspecified) | > 42.9 µg/mL
63 | CC(C)CNC(=O)[C@@H]1CSC2c3ccccc3C(=O)N21 (stereo partly specified) | > 43.6 µg/mL
64 | Cc1c(C=C2C(=O)NC(=O)NC2=O)c(=O)n(-c2ccccc2)n1C | > 48.9 µg/mL
65 | CSc1ccc(CN(C)C(=O)c2cc(Cl)c3c(c2)OCCO3)cc1 | > 54.6 µg/mL
66 | Cc1cccnc1Nc1nc(-c2ccc(F)cc2)cs1 | 0.3 µg/mL (≈ 1.05 µM)
67 | Cc1ccc2oc(C(=O)N3CCN(CCO)CC3)c(C)c2c1 | > 45.4 µg/mL
68 | O=C(Nc1ccc(F)cc1)c1cccc2ccccc12 | < 0.6 µg/mL
69 | Cc1cccc(OCC(=O)OCC(=O)Nc2sccc2C(N)=O)c1 | 44.2 µg/mL (≈ 127 µM)
70 | O=C(O)Cc1ccc(S(=O)(=O)N2CCCC2)s1 | > 41.3 µg/mL
71 | COc1ccc(CC(=O)Nc2ccccc2N2CCCCC2)cc1OC | 30.7 µg/mL (≈ 86.6 µM)
72 | CCc1cccc(NC(=O)CCCCCC2NC(=O)NC2C)c1 (stereo unspecified) | > 47.6 µg/mL
73 | COc1ccc(C2(C(=O)Nc3ccc(C)cc3)CCOCC2)cc1 | > 48.8 µg/mL
74 | CC(=O)Nc1ccc(NCc2cccs2)cc1 | > 36.9 µg/mL
75 | Cn1cc(-c2cccc(C(F)(F)F)c2)cc(C#N)c1=O | 7.6 µg/mL (≈ 27.3 µM)

Row | SMILES | solubility kinetic
76 | CC(C)n1cnnc1SCC(=O)Nc1cccnc1Cl | > 46.8 µg/mL
77 | O=c1c2c([N+](=O)[O-])cc([N+](=O)[O-])cc2nc2ccccn12 | 3.2 µg/mL (≈ 11.2 µM)
78 | CC(CNC(=O)c1ccccc1[N+](=O)[O-])NC(=O)c1ccccc1[N+](=O)[O-] (stereo unspecified) | > 55.9 µg/mL
79 | Cl.O=C(O)CN1CCCCC1 | 23.8 µg/mL
80 | COc1ccc(S(=O)(=O)N2CCCc3ccccc32)cc1OC | 28.4 µg/mL (≈ 85.2 µM)
81 | O=C(COc1ccccc1)NCC(=O)N1CCCCCC1 | > 43.6 µg/mL
82 | Cc1noc(C)c1C(=O)Nc1ccc(C#N)cc1 | > 36.2 µg/mL
83 | N/C(=N\O)c1ccncc1 | > 20.6 µg/mL
84 | CC(OC(=O)CCOc1ccccc1)C(=O)NC1CC1 (stereo unspecified) | > 41.6 µg/mL
85 | CC(NC(=O)c1ccc(S(=O)(=O)C(F)F)cc1)c1ccccc1 (stereo unspecified) | > 50.9 µg/mL
86 | CSc1nc(N)nc(N(C)C)n1 | 24.3 µg/mL (≈ 131 µM)
87 | O=C(CN1C(=O)c2ccccc2C1=O)Nc1nccs1 | 17.4 µg/mL (≈ 60.6 µM)
88 | O=C(O)CC(NC(=O)C1CCCCC1)c1cc([N+](=O)[O-])ccc1Cl (stereo unspecified) | > 53.2 µg/mL
89 | CN1CCN(CC#CCC2(O)c3ccccc3-c3ccccc32)CC1 | 42.1 µg/mL (≈ 127 µM)
90 | CCOc1ccc(S(=O)(=O)NCCC(=O)N2CCCN(C)CC2)cc1 | 50.4 µg/mL (≈ 136 µM)
91 | O=C(Nc1ccc(N2CCOCC2)cc1)c1cccc(S(=O)(=O)N2CCOCC2)c1 | 15.1 µg/mL (≈ 35 µM)
92 | Cc1cc(N2CCNCC2)nc2ccccc12 | 33.3 µg/mL (≈ 146 µM)
93 | CCc1cc(C(=O)OC)c(NC(=O)c2ccoc2C)s1 | < 0.6 µg/mL
94 | O=C(c1ccc([N+](=O)[O-])cc1)N1CCN(c2ncccn2)CC1 | 46.3 µg/mL (≈ 148 µM)
95 | COc1ccc(NC(=O)CN2CCN(c3c(C)cc(C)cc3C)CC2)cc1 | 3.9 µg/mL (≈ 10.6 µM)
96 | Cc1ccc(C(=O)O/N=C(\N)Cc2cccs2)c(Cl)c1 | 15.2 µg/mL (≈ 49.2 µM)
97 | O=C(CSc1ccccc1)Nc1ccc(N2CCOCC2)c(F)c1 | 2.7 µg/mL (≈ 7.79 µM)
98 | Cc1ccc(NC(=S)N2CCCCCC2)cc1 | > 37.3 µg/mL
99 | O=C(Cn1c(=O)oc2ccccc21)NCCc1ccccc1Cl | 1.5 µg/mL (≈ 4.53 µM)
100 | O=C(NC(=S)Nc1ccccc1F)C1CCCCC1 | 3 µg/mL (≈ 10.7 µM)

Row | SMILES | solubility kinetic
101 | NC(=S)Nc1ccc(Cl)cc1Cl | 32.9 µg/mL (≈ 149 µM)
102 | O=C(Nc1ccc(O)cc1C(=O)O)c1cccs1 | > 39.5 µg/mL
103 | COCCNC(=O)CN1C(=O)c2cccc3cccc1c23 | > 42.6 µg/mL
104 | Cc1ccc(N=C2NC(=O)/C(=C/c3cccn3C)S2)c(C)c1 | 1.2 µg/mL (≈ 3.85 µM)
105 | CC(=O)Nc1ccc(NC(C)=O)c(NC2OCC(O)C(O)C2O)c1 (stereo unspecified) | > 50.9 µg/mL
106 | Cc1cccc(NC(=O)C2CC(=O)N(Cc3ccccc3)C2)n1 (stereo unspecified) | > 46.4 µg/mL
107 | CC(C)(C)c1ccc(-c2nc(C#N)c(NCCCn3ccnc3)o2)cc1 | 1.2 µg/mL (≈ 3.43 µM)
108 | CC(NC(=O)COC(=O)COc1ccc(Cl)cc1)c1ccccc1 (stereo unspecified) | 40.2 µg/mL (≈ 116 µM)
109 | CC1CCCC(C)N1C(=O)COC(=O)c1cccnc1Cl (stereo unspecified) | > 46.6 µg/mL
110 | O=C(COc1ccc(Br)cc1)NC1CC1 | > 40.5 µg/mL
111 | S=C(NCc1ccc2c(c1)OCO2)NC1CC1 | > 37.5 µg/mL
112 | O=C(CCCN1CCC(O)(c2ccc(Cl)cc2)CC1)c1ccc(F)cc1 | 23.5 µg/mL (≈ 62.5 µM)
113 | O=C1c2cccc3c([N+](=O)[O-])ccc(c23)C(=O)N1O | > 38.7 µg/mL
114 | CCCCNC(=S)N1CCN(c2ccc(C(C)=O)cc2)CC1 | 8 µg/mL (≈ 25 µM)
115 | COc1ccc(NC(=O)Nc2ccccn2)cc1OC | 16.7 µg/mL (≈ 61.1 µM)
116 | O=C(CSCc1ccccc1Br)Nc1ccccc1 | 29.5 µg/mL (≈ 87.7 µM)
117 | COc1cc(C(=O)NCCOc2ccccc2C)cc(OC)c1OC | 48.8 µg/mL (≈ 141 µM)
118 | CC1CCN(C2CCN(C(=O)c3ccccc3F)CC2)CC1 | 34.7 µg/mL (≈ 114 µM)
119 | CCc1c(C)sc(NC(=O)/C=C/C(=O)O)c1C(N)=O | > 42.3 µg/mL
120 | CCc1cc(C(=O)c2ccccc2)c(N)s1 | 16.6 µg/mL (≈ 71.8 µM)
121 | Cc1cc(C)cc(NC(=O)Oc2ccccc2N2CCCCC2)c1 | 10.1 µg/mL (≈ 31.1 µM)
